# Source: article PMC11249646, “Small-Molecule Disruptors of the Interaction between Calcium- and Integrin-Binding Protein 1 and Integrin αIIbβ3 as Novel Antiplatelet Agents” (ACS Pharmacology & Translational Science, 2024)
# pIC50: −log10 of the molar value. Read-outs that look alike come from different tables or passages of the source.
# Key:
# [1] = target: T1, GST-CIB1 : F-αIIb peptide (Homo sapiens, UniProt Q99828); experiment: FP assay in the presence of glutathione (GSH), thiol reactivity; assay type: binding; settings: for GSH/CIB1 IC50 ratio: ratio of GSH (+) IC50 to GSH (-) IC50
# T1 construct: made in house; host or cells: BL-21 plus RIL cells (E. coli)
# T1 sequence (Q99828 1-191): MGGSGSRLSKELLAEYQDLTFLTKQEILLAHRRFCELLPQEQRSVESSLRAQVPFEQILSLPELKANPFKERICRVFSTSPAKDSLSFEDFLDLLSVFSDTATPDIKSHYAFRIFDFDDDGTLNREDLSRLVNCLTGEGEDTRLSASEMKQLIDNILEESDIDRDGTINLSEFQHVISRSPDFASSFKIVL
# [2] = target: T2, CIB1 and αIIb interaction (GST-CIB1 : F-αIIb peptide) (Homo sapiens, UniProt Q99828); experiment: FP assay, 384-well format (screen); assay type: binding; design: 384-well SCREEN Efficacy (%): concentration or dose not given beside the values; settings: for pIC50: read-out: 384-well SCREEN IC50
# T2 construct: made in house; host or cells: BL-21 plus RIL cells (E. coli)
# T2 sequence (Q99828 1-191): T1 sequence (Q99828 1-191)
# [3] = target: T3, GST-CIB1 : F-scrambled peptide (Homo sapiens, UniProt Q99828); experiment: FP scrambled-peptide counter screen, 384-well format; assay type: binding; settings: for pIC50: read-out: 384-well COUNTERSCREEN IC50
# T3 construct: made in house; host or cells: BL-21 plus RIL cells (E. coli)
# T3 sequence (Q99828 1-191): T1 sequence (Q99828 1-191)
# [4] = target: T4, CIB1 and αIIb interaction (CIB1-GST : F-αIIb peptide) (Homo sapiens, UniProt Q99828); experiment: FP assay, 1536-well qHTS format (primary and confirmatory screen); assay type: binding
# T4 construct: made in house; host or cells: BL-21 plus RIL cells (E. coli)
# T4 sequence (Q99828 1-191): T1 sequence (Q99828 1-191)
# [5] = target: T3, GST-CIB1 : F-scrambled peptide; experiment: FP scrambled-peptide counter screen, 1536-well format; assay type: binding; settings: for pIC50: read-out: COUNTERSCREEN IC50
# [6] = target: T5, GST-CIB1:F-αIIb interaction (Homo sapiens, UniProt Q99828); experiment: Gel-based (in-gel) binding assay
# T5 construct: made in house; host or cells: BL-21 plus RIL cells (E. coli)
# T5 sequence (Q99828 1-191): T1 sequence (Q99828 1-191)
# [7] = F-scrambled peptide, *: Curve in opposite direction
# [8] = confirmatory screen, qHTS curve class, negative sign = inhibitory curve
# [9] = confirmatory screen, read-out: CONFIRMATORY SCREEN IC50
# [10] = qHTS primary screen hits, Table S2, negative = inhibition
# [11] = qHTS primary screen hits, Table S2, negative sign = inhibitory curve, several classes where COUNT > 1
# [12] = qHTS primary screen hits, Table S2, read-out: IC50
# [13] = scrambled-peptide counterscreen, qHTS curve class
# [14] = scrambled-peptide counterscreen
# [15] = 1 μM GST-CIB1, 400 nM F-αIIb, 60 μM, 1:2, 4-points
# [16] = FP assay in the presence of glutathione (GSH +), read-out: GSH (+) Assay IC50
# [17] = FP assay without glutathione (GSH -), read-out: GSH (-) Assay IC50
# [18] = confirmatory screen, YES/NO call
# [19] = confirmatory screen, negative = inhibition
# [20] = scrambled-peptide counterscreen, YES/NO call
# [21] = qHTS primary screen hits, Table S2, negative sign = inhibitory curve
# [22] = qHTS FP screen hits, Table S2, negative = inhibition
# [23] = qHTS FP screen hits, Table S2, one class per curve where COUNT > 1, negative sign = inhibitory curve
# [24] = qHTS FP screen hits, Table S2, read-out: IC50
Compound,GSH/CIB1 IC50 ratio [1],384-well SCREEN Efficacy (%) ([2]; F-αIIb peptide),"384-well SCREEN Confirm? ([2]; F-αIIb peptide, YES/NO)",pIC50 ([2]; F-αIIb peptide),384-well COUNTERSCREEN Efficacy (%) ([3]; F-scrambled peptide),"384-well COUNTERSCREEN Confirm? [3, 7]",pIC50 ([3]; F-scrambled peptide),"CONFIRMATORY SCREEN Curve Class [4, 8]","pIC50 [4, 9]","Efficacy (%) [4, 10]","Curve Class [4, 11]","pIC50 [4, 12]","COUNTERSCREEN Curve Class [5, 13]","pIC50 [5, 14]","Active in Gel Assay? [6, 15]","CONFIRMATORY SCREEN Confirm? [4, 18]","CONFIRMATORY SCREEN Efficacy (%) [4, 19]","COUNTERSCREEN Efficacy (%) [5, 14]","COUNTERSCREEN Confirm? [5, 20]",also measured
S=C(SSC(=S)N1CCCCC1)N1CCCCC1 [NCGC00181776-01],30.8,–,–,–,–,–,–,–,–,–,–,–,–,–,–,–,–,–,–,"pIC50 ([1]; GSH (+) Assay IC50, FP assay in the presence of glutathione (GSH +)): < 3.92; pIC50 ([1]; GSH (-) Assay IC50, FP assay without glutathione (GSH -)): 5.34"
"thimerosal [NCGC00178879-04, reference compound]",–,–,–,–,–,–,–,–,–,–,–,–,–,–,–,–,–,–,–,384-well SCREEN Confirm? [2]: YES; 384-well SCREEN Efficacy (%) [2]: 77%; pIC50 [2]: 5.55; 384-well COUNTERSCREEN Confirm? [3]: YES; 384-well COUNTERSCREEN Efficacy (%) [3]: 45%; pIC50 [3]: 5.15; CONFIRMATORY SCREEN Confirm? [4]: YES; CONFIRMATORY SCREEN Curve Class [4]: -1.2; CONFIRMATORY SCREEN Efficacy (%) [4]: -53%; Curve Class [4]: -1.2; Efficacy (%) [4]: -74%; pIC50 ([4]; read-out: CONFIRMATORY SCREEN IC50): 4.75; pIC50 ([4]; read-out: IC50): 4.65; COUNTERSCREEN Confirm? [5]: YES; COUNTERSCREEN Curve Class [5]: 3; COUNTERSCREEN Efficacy (%) [5]: 150%; Active in Gel Assay? [6]: YES; pIC50 ([1]; read-out: GSH (+) Assay IC50): 4.45; pIC50 ([1]; read-out: GSH (-) Assay IC50): 6.50
COc1cccc(-n2c(SCc3cc(=O)oc4cc(O)c(O)cc34)nc3ccccc3c2=O)c1.O=C(O)C(F)(F)F [NCGC00371345-01],0.8,73%,YES,4.95,38%,Inconclusive,5.15,-1.1,4.85,-34%,-1.4,5.35,-2.4,5.05,YES,–,–,–,–,"Confirm and Selective? ([2]; selective toward αIIb: negative curve class and/or IC50 ratio of >3-fold and/or >2-fold efficacy vs scrambled peptide): Inconclusive; CONFIRMATORY SCREEN Efficacy (%) [4]: -90%; COUNTERSCREEN Efficacy (%) [5]: -35%; pIC50 [1, 16]: 4.80; pIC50 [1, 17]: 4.70; GSH Assay Result ([1]; thiol reactivity call: No change / Active): No change"
O=[N+]([O-])c1cnc(Sc2nnc(O)n2-c2ccc3c(c2)OCCO3)s1 [NCGC00263145-01],–,67%,YES,5.66,89%,YES,4.05,-1.4,4.95,-40%,-2.2,4.67,4,–,YES,YES,-64%,15%,YES,–
"CCN(CC)C(=S)SSC(=S)N(CC)CC [NCGC00016000-13, disulfiram, reference compound]",8.5,95%,YES,5.80,34%,YES,< 3.92,-1.2,4.85,–,–,–,4,–,YES,YES,-72%,-13%,YES,"IC50 shift in the presence of GSH [1]: 8.5 fold; pIC50 [1, 16]: 4.57; pIC50 [1, 17]: 5.49"
"CN(C)C(=S)SSC(=S)N(C)C [NCGC00091563-02, thiram, reference compound]",8.3,78%,YES,5.55,44%,YES,< 3.92,–,–,–,–,–,–,–,YES,–,–,–,–,"pIC50 [1, 16]: 5.08; pIC50 [1, 17]: 6.00; IC50 shift in the presence of GSH ([1]; with vs without 10 μM reduced GSH): 8.3 fold"
Cc1ccc(S(=O)(=O)Nc2cnccc2C(=O)Nc2nc(-c3cccc(Cl)c3)cs2)cc1.O=C(O)C(F)(F)F [NCGC00318956-01],–,43%,YES,4.85,84%,YES*,4.70,-1.1,–,-32%,–,4.90,4,–,–,YES,-94%,-8.5%,YES,"Curve Class [4, 21]: -1.4"
CN1CCCN=C1/C=C/c1cccs1.O=C(O)c1cc2ccccc2c(Cc2c(O)c(C(=O)O)cc3ccccc23)c1O [NCGC00094552-04],–,24%,–,–,40%,–,–,-2.4,–,-25%,-2.4,–,4,–,–,YES,-39%,0%,YES,–
Cc1cc(=O)oc2cc(SC3=NS(=O)(=O)c4ccccc43)ccc12 [NCGC00189497-01],–,52%,YES,4.35,34%,–,5.00,-1.4,4.70,–,–,–,3,4.40,–,YES,-39%,115%,YES,"Efficacy (%) [4, 22]: -45%; Curve Class [4, 23]: -2.2; pIC50 [4, 24]: 4.40"
COc1ccc2c(c1)C=C1Cn3c-2c(C2CCCCC2)c2ccc(cc23)C(=O)NS(=O)(=O)N(C)CCOCCN(C)C1=O [NCGC00482982-02],–,35%,YES,4.52,25%,YES*,< 3.92,-2.2,4.40,–,–,–,–,4.15,–,YES,-52%,101%,YES,"Efficacy (%) [4, 22]: -35%; Curve Class [4, 23]: -2.2; pIC50 [4, 24]: 4.25"
Cc1cc(Nc2c(Nc3nnc(-c4ccncc4)s3)c(=O)c2=O)ccc1Cl.O=C(O)C(F)(F)F [NCGC00241510-01],–,23%,–,< 3.92,64%,–,< 3.92,-1.4,4.95,-35%,–,4.40,-2.2,4.35,–,YES,-51%,-33%,YES,"Curve Class [4, 21]: -2.4"
O=C(O)C(F)(F)F.O=C(O)c1ccc(-c2ccc3ncnc(NCc4nccs4)c3c2)o1 [NCGC00229620-01],–,40%,YES,4.75,48%,–,4.50,-2.4,4.35,–,–,–,4,–,–,YES,-55%,-21%,YES,"Efficacy (%) [4, 22]: -25%; pIC50 [4, 24]: 5.00"
CCc1ccc(S(=O)(=O)Nc2cnccc2C(=O)Nc2nc(-c3ccccc3)cs2)cc1.O=C(O)C(F)(F)F [NCGC00344909-01],–,40%,YES,4.45,44%,YES,< 3.92,-2.2,4.65,-57%,-2.2,4.10,4,–,–,YES,-82%,14%,YES,–
